Assays:
[1] = system: Tetranychus urticae; assay: Tetranychus urticae - spray test, OP-resistant; type: in vivo; details: bean leaf discs, after 6 days
Method: (§1) Solvent: 78.0 parts by weight of acetone and 1.5 parts by weight of dimethylformamide
(§2) Emulsifier: alkylaryl polyglycol ether
(§3) To produce an appropriate active ingredient formulation, 1 part by weight of active ingredient is dissolved using the specified parts by weight of solvent and made up with water containing an emulsifier concentration of 1000 ppm until the desired concentration is attained. To produce further test concentrations, the preparation is diluted with emulsifier-containing water.
Discs of bean leaves (Phaseolus vulgaris) infested by all stages of the greenhouse red spider mite (Tetranychus urticae) are sprayed with an active ingredient formulation of the desired concentration.
After 6 days, efficacy in % is determined. 100% means that all the spider mites have been killed; 0% means that none of the spider mites have been killed.

[2] = logP determination by HPLC on a reversed-phase column (C18); type: physicochemical; details: for logP^a): HPLC-MS method a); for log P: HPLC-MS
[3] = system: Spodoptera frugiperda; assay: Spodoptera frugiperda - spray test; type: in vivo; details: caterpillars on maize leaf discs, after 7 days
Method: as §1, §2, §3
Leaf discs of maize (Zea mays) are sprayed with an active ingredient formulation of the desired concentration and, after drying, populated with caterpillars of the armyworm (Spodoptera frugiperda).
After 7 days, efficacy in % is determined. 100% means that all the caterpillars have been killed; 0% means that no caterpillars have been killed.

[4] = system: Ctenocephalides felis; assay: Ctenocephalides felis - oral test; type: in vivo; details: application rate 100 ppm in citrated cattle blood; after 2 days
Method: (§4) Solvent: dimethyl sulphoxide
For the purpose of producing an appropriate active ingredient formulation, 10 mg of active ingredient are mixed with 0.5 ml of dimethyl sulphoxide. Dilution with citrated cattle blood gives the desired concentration.
About 20 unfed adult cat fleas (Ctenocephalides felis) are placed into a chamber which is closed at the top and bottom with gauze. A metal cylinder whose bottom end is closed with parafilm is placed onto the chamber. The cylinder contains the blood/active ingredient preparation, which can be imbibed by the fleas through the parafilm membrane.
After 2 days, the kill in % is determined. 100% means that all of the fleas have been killed; 0% means that none of the fleas have been killed.

[5] = system: Lucilia cuprina; assay: Lucilia cuprina test; type: in vivo; details: application rate 100 ppm; L1 larvae; after 2 days
Method: as §4
(§5) To produce an appropriate active ingredient formulation, 10 mg of active ingredient are mixed with 0.5 ml of dimethyl sulphoxide, and the concentrate is diluted with water to the desired concentration.
About 20 L1 larvae of the Australian sheep blowfly (Lucilia cuprina) are transferred into a test vessel containing minced horsemeat and the active ingredient preparation of the desired concentration.
After 2 days, the kill in % is determined. 100% means that all the larvae have been killed; 0% means that none of the larvae have been killed.

[6] = system: Boophilus microplus; assay: Boophilus microplus - injection test; type: in vivo; details: application rate 20 μg/animal, injection into engorged adult female ticks, after 7 days
Method in brief: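 Five engorged adult female cattle ticks each received a 1 μl abdominal injection of compound solution in dimethyl sulphoxide. Fertile egg laying was assessed at 7 days, with doubtful eggs incubated about 42 days until hatch. 0% efficacy means all eggs fertile.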

[7] = system: Phaedon cochleariae; assay: Phaedon cochleariae - spray test; type: in vivo; details: larvae on Chinese cabbage leaf discs, after 7 days
Method in brief: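 Mortality of mustard beetle larvae was scored as % at day 7 on Brassica pekinensis leaf discs. Discs had been treated by spraying at the desired concentration, using an acetone/dimethylformamide solution diluted in water with 1000 ppm alkylaryl polyglycol ether, and dried before larvae were added.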

[8] = system: Musca domestica; assay: Musca domestica test; type: in vivo; details: adult houseflies, after 2 days
Method: as §4, §5
Vessels containing a sponge treated with sugar solution and the active ingredient formulation of the desired concentration are populated with 10 adult houseflies (Musca domestica).
After 2 days, the kill in % is determined. 100% means that all of the flies have been killed; 0% means that none of the flies have been killed.

[9] = reversed-phase column (C18), Table I-T3

Row | SMILES | efficacy ([1]; application rate 500 g/ha) | logP^a) [2] | logP^a) [2, 9] | efficacy ([3]; application rate 500 g/ha) | efficacy (kill) [4] | efficacy (kill) [5] | efficacy (laying of fertile eggs) [6] | efficacy ([7]; application rate 500 g/ha) | efficacy (kill) ([8]; application rate 100 ppm) | efficacy ([7]; application rate 100 g/ha) | pest or weed control at 0.02 mg ([6]; Rhipicephalus microplus, 168 h, read-out: efficacy (laying of fertile eggs)) | efficacy ([3]; application rate 100 g/ha) | efficacy (kill) ([8]; application rate 4 ppm) | logP^a) ([2]; reversed-phase column (C18)) | log P [2, 9] | efficacy ([1]; application rate 100 g/ha)
1 | CCc1cc(C(F)(C(F)(F)F)C(F)(F)F)cc(C)c1-n1cc(-c2cccc(C(=O)NC3(C#N)CC3)c2F)cn1 [I-T3-69] | 100% | 4.3 | 4.5 | 100% | 100% | 95% | 100% | 100% | – | – | – | – | – | – | – | –
2 | CCc1cc(C(F)(C(F)(F)F)C(F)(F)F)ccc1-n1cc(-c2cncc(C(=O)NC3(C#N)CC3)c2)cn1 [I-T3-78] | 100% | 3.2 | 3.8 | 100% | 100% | 100% | 100% | 100% | – | – | – | – | – | – | – | –
3 | CCc1cc(C(F)(C(F)(F)F)C(F)(F)F)ccc1-n1cc(-c2cncc(C(=O)NC3CC3)c2)cn1 [I-T3-79] | – | 3.3 | 3.3 | 100% | 95% | 80% | 100% | 100% | 80% | – | – | – | – | – | – | –
4 | Cc1cc(C(F)(C(F)(F)F)C(F)(F)F)cc(C)c1-n1cc(-c2cccc(C(=O)NC3(C#N)CC3)c2F)cn1 [I-T3-10] | 100% | 4.2 | 4.2 | 100% | 100% | 100% | 100% | 100% | – | – | – | – | – | – | – | –
5 | Cc1cc(C(F)(C(F)(F)F)C(F)(F)F)cc(C)c1-n1cc(-c2ccc(Cl)c(C(=O)NC3(C(F)(F)F)CC3)c2)cn1 [I-T3-5] | – | 4.6 | 4.6 | – | 100% | 100% | 100% | – | 100% | 100% | – | – | – | – | – | –
6 | CCc1cc(C(F)(C(F)(F)F)C(F)(F)F)cc(C)c1-n1cc(-c2ccc(Cl)c(C(=O)NC3(C#N)CC3)c2F)cn1 [I-T3-66] | – | 4.6 | 4.6 | 100% | 100% | 100% | 100% | 100% | 80% | – | – | – | – | – | – | –
7 | CCc1cc(C(F)(C(F)(F)F)C(F)(F)F)cc(C)c1-n1cc(-c2ccc(Cl)c(C(=O)NCC(F)(F)F)c2)cn1 [I-T3-45] | 100% | 5.0 | 5.0 | 100% | 95% | 100% | 100% | 100% | – | – | – | – | – | – | – | –
8 | Cc1cc(C(F)(C(F)(F)F)C(F)(F)F)cc(C)c1-n1cc(-c2ncc(Cl)c(C(=O)NC3CC3)n2)cn1 [I-T3-121, 5-chloro-N-cyclopropyl-2-[1-[2,6-dimethyl-4-[1,2,2,2-tetrafluoro-1-(trifluoromethyl)ethyl]phenyl]pyrazol-4-yl]pyrimidine-4-carboxamide] | – | – | – | – | – | – | – | – | 80% | – | 80% | – | – | – | – | –
9 | O=C(NC1CC1)c1cc(-c2cnn(-c3ccc(C(F)(C(F)(F)F)C(F)(F)F)cc3OC(F)(F)F)c2)ccc1Cl [I-T3-35] | – | 4.7 | 4.7 | – | 100% | 100% | 100% | 100% | – | – | – | 83% | 80% | – | – | –
10 | CCc1cc(C(F)(C(F)(F)F)C(F)(F)F)cc(C)c1-n1cc(-c2cccc(C(=O)NC3CC3)c2F)cn1 [I-T3-70] | 90% | 4.3 | 4.7 | 100% | 95% | 100% | 100% | 100% | – | – | – | – | – | – | – | –
11 | CCc1cc(C(F)(C(F)(F)F)C(F)(F)F)cc(C)c1-n1cc(-c2ccc(Cl)c(C(=O)NC3CC3)c2F)cn1 [I-T3-68] | – | 4.6 | 4.8 | 100% | 100% | 100% | 100% | 100% | 80% | – | – | – | – | – | – | –
12 | COc1ncc(-c2cnn(-c3c(C)cc(C(F)(C(F)(F)F)C(F)(F)F)cc3C)c2)cc1C(=O)N(C)C1CC1 [I-T3-144] | – | – | – | – | 90% | 100% | 100% | – | 100% | 100% | – | – | – | 4.4 | 4.4 | –
13 | CCc1cc(C(F)(F)C(F)(F)F)cc(C)c1-n1cc(-c2ccc(Cl)c(C(=O)NC3CSC3)c2)cn1 [I-T3-83] | – | 4.6 | 4.6 | – | 95% | 100% | 100% | – | – | 100% | – | 100% | – | – | – | 100%
14 | O=C(NC1CC1)c1cc(-c2cnn(-c3ncc(C(F)(F)F)cc3C(F)(F)F)c2)ccc1Cl [I-T3-150] | – | – | – | – | 100% | 100% | 100% | – | 100% | – | – | – | – | 3.6 | 3.6 | –
15 | N#CC1(NC(=O)c2cc(-c3cnn(-c4ncc(C(F)(F)F)cc4C(F)(F)F)c3)ccc2Cl)CC1 [I-T3-149] | – | – | – | – | 100% | 100% | 100% | – | 100% | 100% | – | – | – | 3.5 | 3.5 | –
16 | CCc1cc(C(F)(C(F)(F)F)C(F)(F)F)ccc1-n1cc(-c2ccc(Cl)c(C(=O)NC3CSC3)c2)cn1 [I-T3-41] | – | 4.9 | 4.9 | – | 95% | 90% | 100% | – | – | 100% | – | 100% | – | – | – | 100%

Reference: US10150737B2, “Compounds for controlling arthropods” (priority 2013, dated 2018)
